From ChEMBL document CHEMBL4354798, “Synthetic Approaches to the New Drugs Approved During 2017” (J Med Chem, 2019)

How the values were obtained:
[1] = Half life in human Plasma; type: ADME, cell-free
[2] = Half life in human infected with HIV 20 to 40 mg, po for 7 days; type: ADME, organism-based; conditions: in vivo
[3] = Antitumour activity in human FLT3 positive AML patient assessed as increase in survival time at 50 mg, po bid for 14 days co-treated with CTX relative to control; type: functional

Row | half-life [2] | SMILES | further results
1 | – | Cc1cccc(C)c1N(CC(=O)Nc1ccc(-c2ncon2)cc1)C(=O)C1CCS(=O)(=O)CC1 [AMENAMEVIR] | half-life [1]: 8 h
2 | > 120 h | N#Cc1cc(Cl)cc(Oc2c(Br)ccc(CC(=O)Nc3ccc(S(N)(=O)=O)cc3Cl)c2F)c1 [DEPULFAVIRINE] | –
3 | 2 h | CCC(=O)[N-]S(=O)(=O)c1ccc(NC(=O)Cc2ccc(Br)c(Oc3cc(Cl)cc(C#N)c3)c2F)c(Cl)c1.[Na+] [ELSULFAVIRINE SODIUM] | –
4 | – | CO[C@@H]1[C@H](N(C)C(=O)c2ccccc2)C[C@H]2O[C@]1(C)n1c3ccccc3c3c4c(c5c6ccccc6n2c5c31)C(=O)NC4 [MIDOSTAURIN] | Activity [3]: 80%
